{"source": "patent US20210386835A1", "about": "“AN ANTIMICROBIAL COMPOSITION FOR SELECTIVELY INHIBITING GROWTH OF P. ACNES BACTERIA” (priority 2018, published 2021)", "molecules": {"B1": {"name": "Endolysin: recombinant P. acnes phage endolysin cloned from Propionibacterium phage 29399B_C, 284 amino acids, expressed in E. coli (protein)", "chain": "MRYIPAAHHSAGSNHPVNRVVIHATCPDVGFPSASRKGRAVSTANYFASPSSGGSAHYVCDIGETVQCLSEGTIGWHAPPNPHSLGIEICADGGSHASFRVPGHAYTREQWLDPRVWPAVEKAAILCRRLCDKYNVPKRKLSAADLKAGRRGVCGHVDVTDAWHQSDHDDPGPWFPWDRFMAVVNGHNESGELTVADVKALHDQIKQLSAQLAGSVNKLHHDVGVVQVQNGDLGKRVDALSWVKNPVTGKLWRTKDALWSVWYYVLECRSRIDRLESAVNGLKKLEHHHHHH", "modifications": "His6 tag; Polypeptide sequence of Endolysin with C-terminal Histidine tag (x6)"}}, "tested_on": "P. acnes 6919 strain (ATCC, USA)", "assay": "Contact kill assay against P. acnes (2 h exposure, colony count)", "assay_type": "cell-based, Propionibacterium acnes", "conditions": "10 mM HEPES pH 7.0, 37° C., relative to control", "method": "P. acnes 6919 strain (ATCC, USA) was grown under anaerobic conditions on RCM agar from Glycerol stocks. A loopful of culture from glycerol stock was streaked on freshly prepared RCM agar plate and incubated at 37° C. anaerobically for 4-5 days. After the incubation, the culture was taken from the plate and re-suspended in saline and then centrifuged at 8000 rpm for 6 minutes at 4° C. The pellet obtained was re-suspended in 10 mM HEPES buffer (pH 7.0). An OD600 culture of 0.5 was made in HEPES buffer. 1:10 dilution of 0.5 OD adjusted culture was used for contact kill assay corresponding to 10^6 cells per ml. […] The contact assay was performed in 10 mM HEPES buffer (pH 7.0). For control, 181 μl of 1:10 diluted […] adjusted culture was mixed with 19 μl of HEPES buffer to make a volume of 200 μl. […] The mixture was mixed and incubated at 37° C. for 2 hours in shaker incubator. Post incubation, the samples were neutralised by serial 1:10 dilution in D/E broth followed by saline dilutions. 100 μl of each dilution was plated on fresh RCM agar plates and allowed to dry. The plates were sealed with parafilm and incubated at 37° C. in anaerobic chamber for 4-5 days. Post incubation, colonies were counted and titer was estimated as log CFU/ml. The relative log reductions of individual and combination treatment were calculated with respect to control and the data is presented in the table below: […]"}
{"molecule": "Cc1ccc(C(C)C)c(O)c1", "note": "[Thymol, thymol]", "values": [{"measurement": "Relative log reduction", "setting": "Thymol 0.01%", "value": 0.33}, {"measurement": "Relative log reduction", "setting": "Thymol 0.02%", "value": 2.02}]}
{"molecule": "B1", "values": [{"measurement": "Relative log reduction", "setting": "Endolysin 3 μM", "value": 1.17}]}
